Source: patent US20230406849A1, “KRAS INHIBITORS FOR TREATMENT OF CANCERS” (TYLIGAND BIOSCIENCE (SHANGHAI) LIMITED, priority 2020, published 2023)
pIC50: −log10 of the molar value. Where two headings read alike, the source gives them in different places.

Assays:
Assay type in all cases: cell-based
[1] = test system: H1373 (KRas-G12C); assay: KRas mutant cell proliferation, CellTiter-Glo (CTG); settings: Homo sapiens, NCI-H1373, lung cancer, 72 h; for inhibition at up to 10 µM: top concentration 10 μM, read-out: Maximum inhibition %
Text: (§1) In this assay, the CellTiter-Glo (CTG) kit of Promega was used to evaluate the anti-proliferation activities of the compounds of the present disclosure on 12 KRas mutant tumor cell lines.
(§2) [Test materials]: RPMI1640 medium (Hyclone, Cat #SH30809.01); fetal bovine serum (FBS) (Gibco, Cat #10099-141); phosphate buffer PBS (Solarbio, Cat #P1020-500); DMSO (Sigma, Cat #D8418-1L); detection kit CTG (Promega, Cat #G7573); 96-well cell culture plate (Thermo, Cat #3100 Series); Vibrator (QILINBEIER, Cat #QB-9001); Incubator (Thermo Scientific, Cat #Model 3100 series); microscope (OLYMPUS, Cat #CKX41SF); multi-function microplate reader (BMG LABTECH, Cat #CLARIOstar® Plus); biological safety cabinet (Thermo, Cat #Model 1300 Series A2). All cell lines used in the following assay were purchased from KYinno Biotechnology Co., Ltd.
(§3) Each of the above cell lines was cultured in the indicated complete medium at 37° C., 5% CO2, and the cells in the logarithmic growth phase were harvested and counted using a platelet counter. The cell viability was detected by the trypan blue exclusion method to ensure that the cell viability was above 90%. Cell density was adjusted using complete medium, and then inoculated into 96-well cell culture plates, at 90 μL and a total of 3000 cells per well. The cells in the 96-well plate were cultured at 37° C. and 5% CO2.
(§4) The test compound solution in culture medium was prepared, the top concentration was 10 μM, serially diluted at a dilution factor of 3.16 to afford 9 concentrations. 10 μL of each diluted compound solution was transferred to the corresponding experimental well of the 96-well cell plate and each concentration was set three replicate wells. The cells in the 96-well plate that had been dosed were incubated at 37° C. and 5% CO2 for 72 hours, and then CTG analysis was performed.
(§5) The CTG reagent was melted, and the cell plate was moved to room temperature to equilibrate for 30 minutes. 100 μL of CTG solution was added to each well, and shaken on an orbital shaker for 5 minutes to fully lyse the cells. The plate was kept at room temperature for 20 minutes to stabilize the luminescence signal, and the luminescence value of each well was scanned and the data was collected. GraphPad Prism 7.0 software was used to analyze the data, and the nonlinear Sigmoidal regression was used to fit the data to obtain a dose-response curve. The relative and absolute IC50 values and the maximum inhibition rate were calculated according to conventional methods well known to those skilled in the art.
(§6) Inhibition rate %=[1−(LumDrug to be tested−LumCulture medium control)/(LUMCell control−LumCulture medium control)]×100%

[2] = test system: MIA-PaCa-2 (KRas-G12C); assay: as above; settings: Homo sapiens, pancreatic cancer, 72 h; for inhibition at up to 10 µM: top concentration 10 μM, read-out: Maximum inhibition %
Text: as §1, §2, §3, §4, §5, §6

[3] = test system: SW837 (KRas-G12C); assay: as above; settings: Homo sapiens, rectal cancer, 72 h; for inhibition at up to 10 µM: top concentration 10 μM, read-out: Maximum inhibition %
Text: as §1, §2, §3, §4, §5, §6

[4] = test system: Kyse-410 (KRas-G12C); assay: as above; settings: Homo sapiens, esophageal cancer, 72 h; for inhibition at up to 10 µM: top concentration 10 μM, read-out: Maximum inhibition %
Text: as §1, §2, §3, §4, §5, §6

[5] = test system: A549 (KRasG12S); assay: as above; settings: Homo sapiens, A549, KRas G12S, lung cancer, 72 h; for inhibition at up to 10 µM: top concentration 10 μM, read-out: Maximum inhibition %
Text: as §1, §2, §3, §4, §5, §6

[6] = test system: T84 (KRas-G13D); assay: as above; settings: colon cancer, 72 h; for inhibition at up to 10 µM: top concentration 10 μM, read-out: Maximum inhibition %
Text: as §1, §2, §3, §4, §5, §6

[7] = test system: HCT116 (KRas-G13D); assay: as above; settings: Homo sapiens, HCT-116, colorectal cancer, 72 h; for inhibition at up to 10 µM: top concentration 10 μM, read-out: Maximum inhibition %
Text: as §1, §2, §3, §4, §5, §6

[8] = test system: H23 (KRas-G12C); assay: as above; settings: lung cancer, 72 h; for inhibition at up to 10 µM: top concentration 10 μM, read-out: Maximum inhibition %
Text: as §1, §2, §3, §4, §5, §6

[9] = test system: BaF3-KRas-G12C-Y96C; assay: Proliferation of KRas G12C inhibitor-resistant cell model, CTG; settings: Adagrasib acquired-resistance model
Protocol: as §3
(§7) 10 μL of each diluted compound solution was transferred to the corresponding experimental well of the 96-well cell plate and each concentration was set three replicate wells. The cells in the 96-well plate that had been dosed were incubated at 37° C. and 5% CO2 for 72 hours, and then CTG analysis was performed.
as §5, §6
(§8) Acquired resistance is one of the key factors that affect the treatment efficacy of KRas G12C inhibitors.
(§9) All cell lines used in this assay were provided by KYinno Biotechnology Co., Ltd.

[10] = test system: BaF3-KRas-G12C-H95Q; assay: as above; settings: Adagrasib acquired-resistance model
Protocol: as §3, §7, §5, §6, §8, §9

[11] = test system: BaF3-KRas-G12C-Y96D; assay: as above; settings: Adagrasib acquired-resistance model
Protocol: as §3, §7, §5, §6, §8, §9

[12] = test system: BaF3-KRas-G12C-R68S; assay: as above; settings: Adagrasib acquired-resistance model
Protocol: as §3, §7, §5, §6, §8, §9

[13] = test system: BaF3-KRas-G12C-H95D; assay: as above; settings: Adagrasib acquired-resistance model
Protocol: as §3, §7, §5, §6, §8, §9

pIC50 ([1]; read-out: Absolute IC50) | pIC50 ([1]; read-out: Relative IC50) | pIC50 ([2]; read-out: Absolute IC50) | pIC50 ([2]; read-out: Relative IC50) | pIC50 ([3]; read-out: Absolute IC50) | pIC50 ([3]; read-out: Relative IC50) | pIC50 ([5]; read-out: Absolute IC50) | pIC50 ([5]; read-out: Relative IC50) | pIC50 ([7]; read-out: Absolute IC50) | pIC50 ([7]; read-out: Relative IC50) | Structure (SMILES) | inhibition at up to 10 µM [1] | inhibition at up to 10 µM [2] | inhibition at up to 10 µM [3] | pIC50 ([4]; read-out: Absolute IC50) | pIC50 ([4]; read-out: Relative IC50) | inhibition at up to 10 µM [4] | inhibition at up to 10 µM [5] | pIC50 ([6]; read-out: Absolute IC50) | pIC50 ([6]; read-out: Relative IC50) | inhibition at up to 10 µM [6] | further results
5.49 | 5.72 | 7.04 | 7.39 | < 5.00 | 7.74 | < 5.00 | < 5.00 | < 5.00 | < 5.00 | C=CC(=O)N1CCN(c2ncnc3c(F)c(-c4ccc(F)c5sc(N)nc45)c(Cl)cc23)CC1 [Ref. Comp. A, reference compound] | 65.2% | 74.5% | 48.6% | 5.14 | 5.25 | 58.3% | 19.7% | < 5.00 | < 5.00 | 4.59% | inhibition at up to 10 µM [7]: 29.3%; pIC50 ([8]; read-out: Absolute IC50): 6.28; pIC50 ([8]; read-out: Relative IC50): 6.49; inhibition at up to 10 µM [8]: 85.9%; pIC50 [9]: 6.26; pIC50 [10]: 6.92; pIC50 [11]: 5.49; pIC50 [12]: 5.75; pIC50 [13]: 6.82
5.82 | 5.79 | 7.09 | 7.44 | 6.37 | 7.77 | < 5.00 | < 5.00 | 5.15 | 5.23 | C=CC(=O)N1CCN(c2c(C#N)cnc3c(F)c(-c4ccc(F)c5sc(N)nc45)c(Cl)cc23)CC1 [Example 9, 4-(4-Acryloylpiperazin-1-yl)-7-(2-amino-7-fluorobenzo[d]thiazol-4-yl)-6-chloro-8-fluoroquinoline-3-carbonitrile] | 80.3% | 85.9% | 60% | 5.80 | 5.69 | 77.5% | 44.1% | < 5.00 | < 5.00 | 14.7% | inhibition at up to 10 µM [7]: 62%; pIC50 ([8]; read-out: Absolute IC50): 6.56; pIC50 ([8]; read-out: Relative IC50): 6.69; inhibition at up to 10 µM [8]: 94.4%; pIC50 [9]: 6.51; pIC50 [10]: 7.04; pIC50 [11]: 5.89; pIC50 [12]: 6.25; pIC50 [13]: 7.00
